“Also recorded” adds a separate entry of the source.
Experiments:
[1] = in vivo; cited from earlier work
[2] = system: oligodendrocytes (CNP positive cells); test: Oligodendrocyte density (CNP positive cells) in white matter, mouse model of chronic hypoxia; assay type: in vivo, mice; conditions: Hx-BH4 vs Hx; 10.5% FiO2 postnatal day 3 to 11; n=3-6 each
Source text: (§1) FIG. 3. Correspondence between human and rodent gestation periods. Regarding WM development, postnatal days 3-11 in mice correspond to the 3rd trimester of human pregnancy. The murine model was used by the inventors to investigate the effects of hypoxia and treatment of hypoxia by BH4. A mouse model of chronic hypoxia during a period that corresponds to the 3rd trimester in human white matter development is described by […], et al ^47 and by Raymond, et al. ^48, both of which are incorporated by reference. Three groups of mice: Normoxic controls (Nx), Hypoxic (Hx), Hypoxic treated with BH4 (Hx-BH4). Hx and Hx-BH4 mice were kept at 10.5% FiO2 from postnatal day 3 to 11-a period of WM development equivalent to the 3rd trimester in humans as illustrated by FIG. 3. BH4 brain levels were quantified and compared between Nx (n=11) and Hx (n=12). Densities of cells expressing CNP, a marker of oligodendrocytes which are cells responsible for myelination, and Caspase3, an apoptosis marker, were compared between all groups (n=3-6 each). Expression of myelin basic protean, a myelination marker, was quantified using Western Blot (n=7-12 each).

[3] = system: apoptotic cells (Caspase3 positive); test: Apoptotic cell density (Caspase3 positive) in white matter, mouse model of chronic hypoxia; assay type: in vivo, mice
Source text: as §1

Myelin Basic Protein = test: Expression of myelin basic protein (Western blot, immunohistochemistry), mouse model of chronic hypoxia; assay type: in vivo, mice
Source text: as §1

WM integrity and damage = conditions: in vivo; cited from earlier work
[4] = cited from earlier work

For `C[C@H](O)[C@H](O)[C@H]1CNc2nc(N)[nH]c(=O)c2N1` [BH4, Tetrahydrobiopterin], the “Placental crossing and fetal tissue distribution” value [1] is listed as “crosses the placenta and distributes throughout fetal tissues, including the brain”, the “Effect of BH4 treatment on hypoxia-induced increase of oligodendrocyte density” value [2] is listed as “not limited by BH4 therapy; also recorded: did not limit this effect” and the “Effect of BH4 treatment on hypoxia-increased WM apoptosis (apoptotic cell density)” value ([3]; Hx-BH4 vs Hx, p=0.01, 10.5% FiO2 postnatal day 3 to 11, n=3-6 each) is listed as “mitigate this effect; also recorded: decreased with BH4 treatment”. For the same compound, the “Apoptotic cell density, Hx-BH4 compared with normoxic controls” value ([3]; Hx-BH4 vs Nx) was “no difference in apoptotic cell density between Nx and Hx-BH4”, the “Effect of BH4 treatment on hypoxia-decreased expression of myelin basic protein” value (Myelin Basic Protein; Hx-BH4 vs Hx, p=0.006, 10.5% FiO2 postnatal day 3 to 11, n=7-12 each) was “mitigated by BH4 therapy; also recorded: increased with BH4 treatment” and the “Expression of myelin basic protein, Hx-BH4 compared with normoxic controls” value (Myelin Basic Protein; Hx-BH4 vs Nx) was “no significant difference between normoxic controls (Nx) and hypoxic mice treated with BH4 (Hx-BH4)”. For the same compound, the “WM integrity and damage in children with phenylketonuria treated early” value (WM integrity and damage) was “Improvements of WM integrity and damage”, the “Safety and tolerability in long-term follow-up studies” value ([4]; humans, wide range of doses) was “safe and well tolerated” and the Teratological effects ([4]; in vivo) was “no teratological effects have been documented”. The “Maternal BH4 treatment in pregnant females” value ([4]; recent trials) was “efficient and safe”.

— patent publication US20180221371A1, “TREATMENT FOR THE FETUS WITH CONGENITAL HEART DISEASE” (CHILDREN'S NATIONAL MEDICAL CENTER, priority 2015, published 2018)
